Measured values: article PMC8763920, “Unprotected peptide macrocyclization and stapling via a fluorine-thiol displacement reaction” (Nature Communications, 2022)
*1 amine or outer side, *2 acyl side, *3 side chain or, on linkers, in order; H or OH if unused. Where a SMILES comes first, the peptide text is derived from it. Bridges are numbered along the chain shown (N, C = ends). [ ]: non-standard residue; d: D form. Benzene(1,3-(CH2SCH2CO)2) = O=C(CSCc1cccc(CSCC(=O)[*:2])c1)[*:1]; X3 = O=C(CSCCCCCCCCSCC(=O)[*:2])[*:1]; X2 = O=C(CSCCCCCCCSCC(=O)[*:2])[*:1]; X4 = O=C(CSCCCCCSCC(=O)[*:2])[*:1]; S5 = C=CCCC[C@](C)(N)C(=O)O; dDap = NC[C@@H](N)C(=O)O; Dap = NC[C@H](N)C(=O)O

Legend:
DLD-1 cells [1] = assay: 5-day growth inhibition of DLD-1 cancer cells; assay type: cell-based; settings: CellTiter Glo; for EC50: 5 days, 1000 cells per well, n = 3, read-out: EC50, inhibition of DLD-1 cell growth
Procedure: (§1) For growth inhibition by Axin peptides, DLD-1 cells were cultured and maintained as mentioned before. Right before the assay, cells were resuspended in fresh RPMI media supplemented with 10% FBS, 100 IU/mL penicillin, and 100 µg/mL streptomycin, and plated onto 96-well white flat-bottom plates at 1000 cells per well (90 µL media/well). After overnight incubation, peptide samples were serially diluted as 10× stock in PBS buffer (10% DMSO), and were added to the plated cells at 10 µL stock solution/well in triplicate to make final treatment concentrations of 0, 0.0625, 0.125, 0.25, 0.5, 1, 2, 4, 8, 16 µM. The wells on the edges of plates were filled with PBS buffer to avoid unwanted evaporation of samples. The samples on the plates were incubated at 37 °C, 5% CO2 for 5 days, and the cell viability was evaluated by CellTiter Glo (Promega). The luminescence signals were recorded by the H1 synergy plate reader (Biotek) using the Gen5 software, and were normalized against the control groups (100%) for which cells were only treated with the vehicle (PBS/1% DMSO). Control HEK293 cells were cultured in DMEM media supplemented with 10% FBS, 1% penicillin/streptomycin at 37 °C, 5% CO2, then incubated with peptide samples and measured for viability in the same manner as mentioned above. For Axin peptide analogues’ time-dependent cytotoxicity, peptide analogues were mixed with cells (1000 cells per well) at a final concentration of 0, 5, 10, and 15 µM. The cell viabilities were meaured via CellTiter Glo after incubation of 1 day, 2 days, and 4 days, respectively. […] After 24 h of incubation, the cell viabilities were measured and normalized against the vehicle control groups the same as mentioned above.

circular dichroism = settings: water; pH ns; 25 °C; 70 uM
DLD-1 cells [2] = assay: Time-dependent cytotoxicity/growth inhibition of Axin peptide analogues; assay type: cell-based; settings: 0, 5, 10, 15 µM; after 48 h of incubation; CellTiter Glo
Procedure: as §1, with “The wells on the edges of plates were filled with PBS buffer to avoid unwanted evaporation of samples.” left out, “above.” for “above. For Axin peptide analogues’ time-dependent cytotoxicity, peptide analogues were mixed with cells (1000 cells per well) at a final concentration of 0, 5, 10, and 15 µM. The cell viabilities were meaured via CellTiter Glo after incubation of 1 day, 2 days, and 4 days, respectively.”

[3] = tested on: β-catenin mediated transcription; assay: TOPFlash luciferase reporter assay; assay type: cell-based; settings: DLD-1 cells, 15 μM peptide, 24 h
Procedure: For evaluation of Axin peptide analogues, DLD-1 cells were cultured in 96-well flat bottom plates up to 70–80% confluency and were transfected with 200 ng M50 TOPFlash plasmid (a gift from Professor Raymond Habas, Temple Biology) and 50 ng pRL-TK plasmid (Promega). 12 h after transfection, cells were treated with DMSO vehicle or 15 μM of Axin peptide analogues for another 24 h. Luciferase activity was measured using the Dual-Glo luciferase assay kit (Promega) on a Biotek Synergy H1 plate reader using the Gen5 software. Data were processed as firefly: Renilla luciferase ratio for each control or treatment group, and were further normalized against the vehicle control group (100%) as the Relative Activities.

HEK293 cells = assay: 5-day growth of HEK293 control cells; assay type: cell-based; settings: 5 days, CellTiter Glo, up to 16 µM
Procedure: as §1, with “The wells on the edges of plates were filled with PBS buffer to avoid unwanted evaporation of samples.” left out, “above.” for “above. For Axin peptide analogues’ time-dependent cytotoxicity, peptide analogues were mixed with cells (1000 cells per well) at a final concentration of 0, 5, 10, and 15 µM. The cell viabilities were meaured via CellTiter Glo after incubation of 1 day, 2 days, and 4 days, respectively.”

DLD-1 cells [4] = assay: Cell viability assay for imaging studies, Axin analogues; assay type: cell-based; settings: 10 µM, 12 h incubation, CellTiter-Glo
Procedure: For Jurkat cells, after imaging studies with SAHBA analogues (5 µM, 4 h of incubation), viabilities were measured by mixing with the CellTiter-Glo reagent and the chemiluminescence signals were recorded and processed the same as metioned above. Similarly, confocal imaging of DLD-1 cells for the penetration pathway studies were followed by viability measurements. Cells treated with vehicle groups were also analysed and counted as the 100% control.

CC[C@H](C)[C@@H]1NC(=O)[C@@](C)(NC(=O)[C@H](CCC(N)=O)NC(=O)[C@@H]2CCCN2C(=O)[C@H](Cc2c[nH]c3ccccc23)NC(=O)[C@H](CCCNC(=N)N)NC(=O)COCCOCCNC(=S)Nc2ccc3c(c2)C(=O)OC32c3ccc(O)cc3Oc3cc(O)ccc32)CCC/C=C\CCC[C@@](C)(C(=O)N[C@@H](Cc2c[nH]cn2)C(=O)N[C@H](C(=O)N[C@@H](CCCNC(=N)N)C(=O)N[C@@H](CCCNC(=N)N)C(=O)N[C@H](C(=O)N[C@@H](Cc2c[nH]c3ccccc23)C(=O)N[C@@H](CCCNC(=N)N)C(N)=O)C(C)C)C(C)C)NC(=O)[C@H](CC(=O)O)NC(=O)[C@H](CC(C)C)NC1=O [compound 68, reference compound]
concentration at which significant growth inhibition was first displayed (DLD-1 cells [1]; DLD-1, 5 days, highest tested 16 µM): 16 µM

CC[C@H](C)[C@@H]1NC(=O)[C@H](NC(=O)[C@H](CCC(=O)O)NC(=O)[C@@H]2CCCN2C(=O)[C@H](CC(N)=O)NC(=O)[C@H](CCC(=O)O)NC(C)=O)CNC(=O)CSCCCCCSCC(=O)NC[C@H](C(=O)N[C@@H](Cc2c[nH]cn2)C(=O)N[C@H](C(=O)N[C@@H](CCC(N)=O)C(=O)N[C@@H](CCCNC(=N)N)C(=O)N[C@H](C(=O)N[C@@H](CCSC)C(N)=O)C(C)C)C(C)C)NC(=O)[C@H](CC(=O)O)NC(=O)[C@H](CC(C)C)NC1=O (Ac-ENPE[dDap]ILD[dDap]HVQRVM-NH2; linker 5-9 via X4)
helicity (circular dichroism): 14%

CC(=O)N[C@@H](CCC(N)=O)C(=O)N[C@@H](CO)C(=O)N[C@@H](CCC(N)=O)C(=O)N[C@@H](CCC(N)=O)C(=O)N[C@H](C(=O)N[C@@H](Cc1ccccc1)C(=O)N[C@H]1CNC(=O)CSCCCCCCCCSCC(=O)NC[C@@H](C(=O)N[C@@H](CCC(N)=O)C(=O)N[C@@H](CC(N)=O)C(N)=O)NC(=O)[C@H](CC(C)C)NC(=O)[C@H](CC(C)C)NC(=O)[C@H](CCCNC(=N)N)NC(=O)[C@H](Cc2c[nH]c3ccccc23)NC(=O)[C@H](CC(C)C)NC(=O)[C@H](CC(N)=O)NC1=O)[C@@H](C)O
helicity (circular dichroism): 42%

CC[C@H](C)[C@@H]1NC(=O)[C@@H](NC(=O)[C@@H](N)CCC(=O)O)CNC(=O)CSCc2cccc(c2)CSCC(=O)NC[C@H](C(=O)N[C@@H](Cc2c[nH]cn2)C(=O)O)NC(=O)[C@H](CC(=O)O)NC(=O)[C@H](CC(C)C)NC1=O (H-E[Dap]ILD[dDap]H-OH; linker 2-6 via Benzene(1,3-(CH2SCH2CO)2))
helicity (circular dichroism): 39%

CC(=O)N[C@@H](CCC(N)=O)C(=O)N[C@@H](CO)C(=O)N[C@@H](CCC(N)=O)C(=O)N[C@@H](CCC(N)=O)C(=O)N[C@H](C(=O)N[C@@H](Cc1ccccc1)C(=O)N[C@H]1CNC(=O)CSCc2ccc(cc2)-c2ccc(cc2)CSCC(=O)NC[C@H](C(=O)N[C@@H](CCC(N)=O)C(=O)N[C@@H](CC(N)=O)C(N)=O)NC(=O)[C@H](CC(C)C)NC(=O)[C@H](CC(C)C)NC(=O)[C@H](CCCNC(=N)N)NC(=O)[C@H](Cc2c[nH]c3ccccc23)NC(=O)[C@H](CC(C)C)NC(=O)[C@H](CC(N)=O)NC1=O)[C@@H](C)O
helicity (circular dichroism): 18%

CC[C@H](C)[C@@H]1NC(=O)[C@@](C)(NC(=O)[C@H](CCC(=O)O)NC(=O)[C@@H]2CCCN2C(=O)[C@H](CC(N)=O)NC(=O)[C@H](CCC(=O)O)NC(C)=O)CCCC=CCCC[C@@](C)(C(=O)N[C@@H](Cc2c[nH]cn2)C(=O)N[C@H](C(=O)N[C@@H](CCC(N)=O)C(=O)N[C@@H](CCCNC(=N)N)C(=O)N[C@H](C(=O)N[C@@H](CCSC)C(N)=O)C(C)C)C(C)C)NC(=O)[C@H](CC(=O)O)NC(=O)[C@H](CC(C)C)NC1=O (Ac-ENPE[S5]ILD[S5]HVQRVM-NH2; staple 5-9)
helicity (circular dichroism): 48%

CC[C@H](C)[C@@H]1NC(=O)[C@@H](NC(=O)[C@H](CCC(=O)O)NC(=O)[C@@H]2CCCN2C(=O)[C@H](CC(N)=O)NC(=O)[C@H](CCC(=O)O)NC(C)=O)CNC(=O)CSCCCCCCCCSCC(=O)NC[C@@H](C(=O)N[C@@H](Cc2c[nH]cn2)C(=O)N[C@H](C(=O)N[C@@H](CCC(N)=O)C(=O)N[C@@H](CCCNC(=N)N)C(=O)N[C@H](C(=O)N[C@@H](CCSC)C(N)=O)C(C)C)C(C)C)NC(=O)[C@H](CC(=O)O)NC(=O)[C@H](CC(C)C)NC1=O (Ac-ENPE[Dap]ILD[Dap]HVQRVM-NH2; linker 5-9 via X3)
helicity (circular dichroism): 25%

CC[C@H](C)[C@@H]1NC(=O)[C@@H](NC(=O)[C@H](CCC(=O)O)NC(=O)[C@@H]2CCCN2C(=O)[C@H](CC(N)=O)NC(=O)[C@H](CCC(=O)O)NC(C)=O)CNC(=O)CSCCCCCSCC(=O)NC[C@@H](C(=O)N[C@@H](Cc2c[nH]cn2)C(=O)N[C@H](C(=O)N[C@@H](CCC(N)=O)C(=O)N[C@@H](CCCNC(=N)N)C(=O)N[C@H](C(=O)N[C@@H](CCSC)C(N)=O)C(C)C)C(C)C)NC(=O)[C@H](CC(=O)O)NC(=O)[C@H](CC(C)C)NC1=O (Ac-ENPE[Dap]ILD[Dap]HVQRVM-NH2; linker 5-9 via X4)
helicity (circular dichroism): 24%

CC[C@H](C)[C@@H]1NC(=O)[C@@H](NC(=O)[C@H](CCC(N)=O)NC(=O)[C@@H]2CCCN2C(=O)[C@H](Cc2c[nH]c3ccccc23)NC(=O)[C@H](CCCNC(=N)N)NC(=O)COCCOCCNC(=S)Nc2ccc3c(c2)C(=O)OC32c3ccc(O)cc3Oc3cc(O)ccc32)CNC(=O)CSCc2cccc(c2)CSCC(=O)NC[C@H](C(=O)N[C@@H](Cc2c[nH]cn2)C(=O)N[C@H](C(=O)N[C@@H](CCCNC(=N)N)C(=O)N[C@@H](CCCNC(=N)N)C(=O)N[C@H](C(=O)N[C@@H](Cc2c[nH]c3ccccc23)C(=O)N[C@@H](CCCNC(=N)N)C(N)=O)C(C)C)C(C)C)NC(=O)[C@H](CC(=O)O)NC(=O)[C@H](CC(C)C)NC1=O [compound 67]
effects on DLD-1 cells over a time course of 24–96 h (DLD-1 cells [2]): significant effects
EC50 (DLD-1 cells [1]): 9.8 ± 2 µM
inhibition of β-catenin mediated transcription (TOPFlash) [3]: strong inhibition
effect on growth of HEK293 control cells (HEK293 cells): little effects
effect on viability of DLD-1 cells (DLD-1 cells [4]): did not affect the viability

CC[C@H](C)[C@@H]1NC(=O)[C@H](NC(=O)[C@H](CCC(=O)O)NC(=O)[C@@H]2CCCN2C(=O)[C@H](CC(N)=O)NC(=O)[C@H](CCC(=O)O)NC(C)=O)CNC(=O)CSCCCCCCCSCC(=O)NC[C@@H](C(=O)N[C@@H](Cc2c[nH]cn2)C(=O)N[C@H](C(=O)N[C@@H](CCC(N)=O)C(=O)N[C@@H](CCCNC(=N)N)C(=O)N[C@H](C(=O)N[C@@H](CCSC)C(N)=O)C(C)C)C(C)C)NC(=O)[C@H](CC(=O)O)NC(=O)[C@H](CC(C)C)NC1=O (Ac-ENPE[dDap]ILD[Dap]HVQRVM-NH2; linker 5-9 via X2)
helicity (circular dichroism): 19%

CC[C@H](C)[C@@H]1NC(=O)[C@@H](NC(=O)[C@H](CCC(N)=O)NC(=O)[C@@H]2CCCN2C(=O)[C@H](Cc2c[nH]c3ccccc23)NC(=O)[C@H](CCCNC(=N)N)NC(=O)COCCOCCNC(=S)Nc2ccc3c(c2)C(=O)OC32c3ccc(O)cc3Oc3cc(O)ccc32)CNC(=O)CSCc2cccc(c2)CSCC(=O)NC[C@@H](C(=O)N[C@@H](Cc2c[nH]cn2)C(=O)N[C@H](C(=O)N[C@@H](CCCNC(=N)N)C(=O)N[C@@H](CCCNC(=N)N)C(=O)N[C@H](C(=O)N[C@@H](Cc2c[nH]c3ccccc23)C(=O)N[C@@H](CCCNC(=N)N)C(N)=O)C(C)C)C(C)C)NC(=O)[C@H](CC(=O)O)NC(=O)[C@H](CC(C)C)NC1=O [compound 65]
effects on DLD-1 cells over a time course of 24–96 h (DLD-1 cells [2]): significant effects
EC50 (DLD-1 cells [1]): 2.3 ± 0.4 µM
inhibition of β-catenin mediated transcription (TOPFlash) [3]: strong inhibition
effect on growth of HEK293 control cells (HEK293 cells): little effects
effect on viability of DLD-1 cells (DLD-1 cells [4]): did not affect the viability

CC[C@H](C)[C@@H]1NC(=O)[C@H](NC(=O)[C@H](CCC(=O)O)NC(=O)[C@@H]2CCCN2C(=O)[C@H](CC(N)=O)NC(=O)[C@H](CCC(=O)O)NC(C)=O)CNC(=O)CSCCCCCCCCSCC(=O)NC[C@H](C(=O)N[C@@H](Cc2c[nH]cn2)C(=O)N[C@H](C(=O)N[C@@H](CCC(N)=O)C(=O)N[C@@H](CCCNC(=N)N)C(=O)N[C@H](C(=O)N[C@@H](CCSC)C(N)=O)C(C)C)C(C)C)NC(=O)[C@H](CC(=O)O)NC(=O)[C@H](CC(C)C)NC1=O (Ac-ENPE[dDap]ILD[dDap]HVQRVM-NH2; linker 5-9 via X3)
helicity (circular dichroism): 25%
